According to patent publication US4746737A, “Phenyl guanidinobenzoate derivatives which have protease inhibitory activity” (Kowa Co., Ltd., priority 1985, dated 1988):
Structures can show the parent of a compound that is named as a salt.

Tests used:
trypsin = target: T1, trypsin (Bos taurus, UniProt P00760); assay: Trypsin inhibitory activity; assay type: biochemical; details: pH 8.0, 37° C., substrate Boc-Phe-Ser-Arg-MCA; read-out: Concentration for 50% inhibition, trypsin
T1 sequence (P00760 24-246): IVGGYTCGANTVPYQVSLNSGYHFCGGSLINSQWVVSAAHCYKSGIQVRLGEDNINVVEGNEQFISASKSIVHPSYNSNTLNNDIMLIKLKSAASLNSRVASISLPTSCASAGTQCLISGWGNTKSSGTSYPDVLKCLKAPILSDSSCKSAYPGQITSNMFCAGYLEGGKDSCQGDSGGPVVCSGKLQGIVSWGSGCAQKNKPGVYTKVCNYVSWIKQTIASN
Description: To 0.1 ml of a dimethylsulfoxide solution of a compound to be tested were added 0.3 ml of a 0.1M trishydrochloric acid buffer solution (pH 8.0) containing 10 mM of calcium chloride and 0.1 ml of a solution of 50 ng/ml of trypsin dissolved in the buffer solution, followed by incubation at 37° C. and 10 minutes. Thereafter, 5 microliters of a dimethylformamide solution of 10 mM Boc-Phe-Ser-Arg-MCA, followed by reaction at 37° C. for 30 minutes and addition of 0.5 ml of a 10% acetic acid solution to stop the reaction. The fluorecence of produced 7-amino-4-methylcumarin was measured by the use of a fluorometer (Fluorometer 650-40, by Hitachi Ltd.) under conditions of an excitation wavelength of 380 nm, a wavelength of the fluorescence of 460 nm and a slit width of 2 mm.
The inhibition rate of the respective compounds to be tested was calculated according to the following equation. [formula] in which T represents a measured value of "test specimen+enzyme+substrate", E represents a measured value of "enzyme+substrate", and S represents a measured value of "substrate".

thrombin = thrombin (Homo sapiens, UniProt P00734); assay: Thrombin inhibitory activity; assay type: biochemical; details: pH 7.4, 37° C., substrate Boc-Val-Pro-Arg-MCA; read-out: Concentration for 50% inhibition, thrombin
Description: To 0.1 ml of a dimethylsulfoxide solution of each of compounds to be tested were added 0.3 ml of a 0.1M phosphate buffer solution (pH 7.4) and 0.1 ml of a thrombin solution containing 100 mu/ml of thrombin in the buffer solution, followed by incubation at 37° C. for 10 minutes. To the solution was added […] of dimethylformamide solution of 10 mM Boc-Val-Pro-Arg-MCA for reaction at 37° C. for 30 minutes. Thereafter, the inhibition rate was calculated similar to the case of trypsin.

[1] = Acute toxicity (LD50), intravenous administration to mice; details: mouse, in vivo
rat's blood = assay: Anticoagulant activity (blood coagulation time by thrombelastograph); details: compound 1×10^-4 M, thrombelastogram
Description: A compound to be tested was dissolved into a physiological saline solution so as to have the final concentration of 1×10^-4 M and then cooled down by ice. A 0.05 ml of the thus prepared solution was added with 0.5 ml of rat's blood, followed by subjecting the obtained solution to a thrombelastograph (manufactured by Hellige Company). The blood coagulation time (r+k value) was determined by the obtained thrombelastogram.

Solubility = assay type: physicochemical; details: pH 3.57

Structure (SMILES) | IC50 (trypsin) [nM] | IC50 (thrombin) [nM] | LD50 [1] [mg/kg] | Blood coagulation time (r+k value) (rat's blood) [min] | solubility (Solubility) [mg/mL]
N=C(N)Nc1ccc(C(=O)Oc2ccc(C(=O)N3CCN(CC(N)=O)CC3)cc2)cc1 [Example 2, 4-[4-(carbamoylmethyl)piperazinocarbonyl]phenyl 4-guanidinobenzoate.dihydrochloride] | 20 | 200 | 150 to 200 | 26.7 ± 3.3 | > 100
N=C(N)Nc1ccc(C(=O)Oc2ccc(C(=O)N3CCN(CC(=O)N4CCOCC4)CC3)cc2)cc1 [Example 6, 4-[4-(Morpholynocarbonylmethyl)piperazinocarbonyl]phenyl 4-guanidinobenzoate.dihydrochloride] | 6 | 400 | 150 to 200 | 15.3 ± 3.1 | 
N=C(N)Nc1ccc(C(=O)Oc2ccc(C(=O)N3CCN(CC(=O)N4CCCC4)CC3)cc2)cc1 [Example 7, 4-[4-(Pyrrolidinocarbonylmethyl)piperazino-carbonyl]phenyl 4-guanidinobenzoate.dihydrochloride] | 7 | 400 | 100 to 150 | 9.7 ± 0.3 | 
CC(C)NC(=O)CN1CCN(C(=O)c2ccc(OC(=O)c3ccc(NC(=N)N)cc3)cc2)CC1 [Example 9, 4-[4-(Isopropylcarbamoylmethyl)piperazinocarbonyl]phenyl 4-guanidinobenzoate.dihydrochloride] | 10 | 400 | 150 to 200 | 18.5 | 
CCOC(=O)CN1CCN(C(=O)c2ccc(OC(=O)c3ccc(NC(=N)N)cc3)cc2)CC1 [Example 10, 4-[4-(Ethoxycarbonylmethyl)piperazinocarbonyl]phenyl 4-guanidinobenzoate.dihydrochloride] | 20 | 400 | 150 to 200 | 10 | 
COc1cc(C(=O)N2CCN(C(C)C)CC2)cc(OC)c1OC(=O)c1ccc(NC(=N)N)cc1 [Example 11, 4-(4-Isopropylpiperazinocarbonyl)-3,5-dimethoxyphenyl 4-gunanidinobenzoate.dihydrochloride] | 400 |  | 50 to 100 |  | 
N=C(N)Nc1ccc(C(=O)Oc2ccc(C(=O)N3CCN(CC(=O)N4CCCCC4)CC3)cc2)cc1 [Example 12, 4-[4-(Piperidinocarbonylmethyl)piperazinocarbonyl]phenyl 4-guanidinobenzoate.dihydrochloride] | 10 |  | 100 to 150 | 14.5 | 
CC(C)N1CCN(C(=O)c2ccc(OC(=O)c3ccc(NC(=N)N)cc3)cc2)CC1 [Example 13, 4-(4-Isopropylpiperazinocarbonyl)phenyl 4-guanidinobenzoate.dihydrochloride] | 20 |  | 50 to 100 | 21 ± 3.9 | 
CC(C(=O)NCCN(C)C)N1CCN(C(=O)c2ccc(OC(=O)c3ccc(NC(=N)N)cc3)cc2)CC1 (centres unmarked) [Example 22, 4-[4-[1-(2-Dimethylaminoethylcarbamoyl)ethyl]piperazinocarbonyl]phenyl 4-guanidinobenzoate.trihydrochloride] | 40 |  |  | 20.5 ± 0.8 | 
N=C(N)Nc1ccc(C(=O)Oc2ccc(C(=O)N3CCN(CCNC(=O)OCc4ccccc4)CC3)cc2)cc1 [Example 25, 4-[4-(2-Benzyloxycarbonylaminoethyl)piperazinocarbonyl]phenyl 4-guanidinobenzoate.dihydrochloride] | 20 |  |  | 18.8 ± 1.2 | 
N=C(N)Nc1ccc(C(=O)Oc2ccc(C(=O)N3CCN(CC(=O)O)CC3)cc2)cc1 [Example 27, 4-[4-(Guanidinobenzoyloxy)benzoyl]piperazino-acetic acid:dihydrochloride] | 40 |  |  | 19.2 ± 2.3 | 
N=C(N)Nc1ccc(C(=O)Oc2ccc(C(=O)N3CCNCC3)cc2)cc1 [Example 29, 4-Piperazinocarbonylphenyl 4-guanidinobenzoate.dihydrochloride] | 30 |  |  | 34.8 ± 5.5 | 
CN1CCN(C(=O)c2ccc(OC(=O)c3ccc(NC(=N)N)cc3)cc2)CC1 [Example 30, 4-(4-Methylpiperazinocarbonyl)phenyl 4-guanidinobenzoate.dihydrochloride] | 30 |  |  | 16.5 ± 1.6 | 
N=C(N)Nc1ccc(C(=O)Oc2ccc(C(=O)N3CCCN(CC(N)=O)CC3)cc2)cc1 [Example 33, 4-(4-Carbamoylmethylhomopiperazinocarbonyl)phenyl 4-guanidinobenzoate.dihydrochloride] | 20 |  |  | 32 ± 2.5 | 
CN(C)CCNC(=O)c1ccc(OC(=O)c2ccc(NC(=N)N)cc2)cc1 [Example 34, 4-(N,N-Dimethylethylenediaminocarbonyl)phenyl 4-guanidinobenzoate.dihydrochloride] | 10 |  |  | 41.3 ± 3.9 | 
CN(C)CCN(C)C(=O)c1ccc(OC(=O)c2ccc(NC(=N)N)cc2)cc1 [Example 37, 4-(N,N,N'-Trimethylethylenediaminocarbonyl)phenyl 4-guanidinobenzoate.dihydrochloride] | 40 |  |  | 46.5 ± 4.5 | 
CN(CCN(C)C(=O)c1ccc(OC(=O)c2ccc(NC(=N)N)cc2)cc1)CC(N)=O [Example 38, 4-[(N-Carbamoylmethyl-N,N'-dimethylethylenediamino)carbonyl]phenyl 4-guanidinobenzoate.dihydrochloride] | 30 |  |  | 34.2 ± 1.6 | 
CN(C)C(=O)COC(=O)Cc1ccc(OC(=O)c2ccc(NC(=N)N)cc2)cc1 [Reference compound A, reference compound] | 50 |  | 280 | 9.8 ± 0.6 | 
CCOC(=O)c1ccc(OC(=O)CCCCCNC(=N)N)cc1 [Reference compound B, reference compound] | 400 |  | 313 | 9.8 ± 1.6 | 
